The text below walks through data of patent publication US20100160391A1, “Substituted Aminopyridines as Fluorescent Reporters for Amide Hydrolases” (priority 2006, published 2010).

Series [1] relates to FAAH. The series can be described thus: FAAH kinetic data of literature substrates. Type of series: biochemical. The conditions noted are these: Vmax/Km of substrate over that of oleamide (5.5 × 10^−2).
In series [2] the test system is FAAH. The conditions noted are these: from Ramarao et al. (AAMCA), De Bank et al. (oleamide); cited from earlier work.
Series [3] is described as follows: Molar extinction coefficient of fluorescent reporters. Type of series: physicochemical. The conditions noted are these: H2O containing 1% ethanol, 290 nm, 30° C., 10-50 μM. The procedure:
Molar extinction coefficient. According to Beer's law, Aλ=ε*C*L, where Aλ is the absorbance at wavelength (λ nm); ε is called the molar extinction coefficient; L is the width of the sample cuvette; and C is the concentration of the solute. In this example, a series of concentrations falling between 10 and 50 μM (final concentration) for each fluorescent reporter was used for determination of the molar extinction coefficient. Assays were performed in a quartz cuvette (1 cm optical passage). 10 μl of a stock solution of a reporter in ethanol (1, 2, 3, 4, or 5 mM) was added to 990 μl H2O. The resulting mixture was degassed by sonication with ultrasonic cleaner Model 750 (VWR International; Wester, Pa.) for 10 seconds at a power level of 9. Measurements were performed with a Spectra Max M2 spectrophotometer (Molecular Devices; Sunnyvale, Calif.) at a wavelength of 290 nm. A slope (or extinction coefficient) was obtained by using an average absorbance of triplicate samples.

Series [4] can be described thus: Maximal excitation and emission wavelengths. Type of series: physicochemical. The note with it: 50 μM in 0.1 M phosphate buffer, 30° C.; SD ±2 nm. The procedure: Maximal excitation and emission wavelengths. A stock solution in ethanol of each compound (10 μl, 5 mM) was added to 990 μl of sodium phosphate buffer (0.1 M, pH 8.0, final substrate concentration 50 μM) in a 1-cm quartz cuvette. The quartz cuvette was scanned from 200 to 500 nm for absorption spectra with a Spectra Max M2 spectrophotometer. Maximal excitation and emission wavelengths were obtained from scanning from 250 to 600 nm and 360 to 600 nm by a 2 nm interval at 30° C., respectively.

A short description of series [5]: Fluorescence quantum yield. The note with it: 10 μM, 1% ethanol in water, excitation 290 nm, standard 3-aminopyridine; SD under ±5%. Type of series: physicochemical. The procedure:
Quantum yield. The fluorescence quantum yield, φf, was calculated according to the following equation:
ØF=Østd*(I/Istd)*(ODstd/OD)*(n/nstd)^2,
wherein ØF is the quantum yield of the tested fluorescent reporter; Østd is the fluorescence quantum yield of the standard; I and Istd are the integrated emission intensities of the sample and the standard, respectively; OD and ODstd are the absorbance of the sample and standard, respectively, at the desired wavelength λex; and n and nstd are the indexes of refraction of the sample and standard solutions, respectively (Horspool and Song (Eds.), CRC Handbook of Organic Photochemistry I, pp 234-235, CRC Press, Boca Raton, Fla., 1995).
In this example, 3-aminopyridine in water at the maximal excitation wavelength of 290 nm was used as a standard (Østd=0.32, εmax=2800 M^−1 cm^−1) (see, e.g., Weisstuch et al., J. Phys. Chem., 72:1982-1987 (1968)). In order to minimize inner filter effects, the optical densities of samples at the excitation wavelength (λ=290 nm) were kept in the range of 0.095-0.13 (less than 0.150-0.165). The final concentration of each tested sample in a quartz cuvette was 10 μM with 1% ethanol in water, same as that for the standard. The integrated area of fluorescent intensity for the standard or the samples was based on the area between 360 and 500 nm. The difference of the index of refraction between the standard and the sample was neglected because (1) all measurements were performed in the same quartz cuvette and spectrofluorimeter; (2) the final concentrations of the sample and the standard were the same; and (3) the structures of the sample and standard were very similar, i.e., only one pyridine ring. The quantum yields presented in Table 1 were based on calculation of the average of OD and integrated fluorescent intensities of triplicates. The standard deviation for each quantum yield was less than ±5%.

Series [6] is described as follows: Dependence of relative fluorescent intensity on pH values. Type of series: physicochemical. The conditions noted are these: pH 6.0 to 9.0, sodium phosphate or Tris/HCl buffer, 25 μM. The procedure:
The dependence of relative fluorescent intensity on pH values. 5-amino-2-methoxypyridine (6) was used to determine whether protonization/de-protonization affects the relative fluorescent intensities of the reporters. A stock solution of (6) in ethanol (5 μl, 5 mM) was added to 995 μl 0.1 M sodium phosphate buffer (from pH 6.0 to pH 8.0) or 0.1 M Tris/HCl buffer (pH 9.0) in a quartz cuvette (final substrate concentration 25 μM). Relative fluorescent unit/intensity (RFU) for emission spectra was recorded by a 2 nm interval at room temperature using a fixed excitation wavelength (λ=302 nm). The RFU of each pH value was an average of triplicates and the standard deviation for each point was less than 1%. Similarly, the RFU of the excitation spectrum was recorded by a 2 nm interval at room temperature using a fixed emission wavelength (λ=396 nm) in 0.1 M phosphate buffer (pH 8.0).

For a further series, the system named is amidases, human liver S9. The series can be described thus: Specific activity, human liver S9. Type of series: biochemical. The conditions noted are these: pH 8.0, 37° C.; NM = not measurable at the same protein concentration as other substrates. The procedure:
Comparison of the lowest detection limits of protein concentration of FAAH toward colorimetric and fluorescent substrates. In general, all assays were performed in 96-well styrene flat-bottom microtiter plates with a Spectra Max M2 spectrophotometer at 37° C. for […]. The total volume of each well was 201 μl consisting of 0.1 M sodium phosphate buffer (pH 8.0) (190 μl) containing 1% glycerol and 0.1% Triton-X 100, stock or diluted protein solution (10 μl), and the substrate solution (1 μl) in ethanol (final concentration 200 μM for 10, 11, 13 or 14) or in DMSO (final concentration 25 μM for 12, 15, or 16; 50 μM for 17). The lowest detection limits of microsomal fatty acid amide hydrolase (FAAH) by substrates were determined by the fact that the signal at 10 min after kinetic measurements are equal to or over three times the noise or basal line at 0 min. Colorimetric substrate (16) assays were performed in clear 96-well microtititer plates using an absorbance wavelength at 382 nm. The fluorescent substrates containing 5-amino-2-methoxypyridine (e.g., 10, 13) were measured at an excitation wavelength (302 nm), emission wavelength (396 nm), and auto cutoff wavelength (325 nm). […]

Series [7] has as its system amidases, human liver microsomes. The series can be described thus: Specific activity, human liver microsomes. Type of series: biochemical. The conditions noted are these: pH 8.0, 37° C.; NM = not measurable at the same protein concentration as other substrates. The procedure:
Comparison of the lowest detection limits of protein concentration of FAAH toward colorimetric and fluorescent substrates. In general, all assays were performed in 96-well styrene flat-bottom microtiter plates with a Spectra Max M2 spectrophotometer at 37° C. for […]. The total volume of each well was 201 μl consisting of 0.1 M sodium phosphate buffer (pH 8.0) (190 μl) containing 1% glycerol and 0.1% Triton-X 100, stock or diluted protein solution (10 μl), and the substrate solution (1 μl) in ethanol (final concentration 200 μM for 10, 11, 13 or 14) or in DMSO (final concentration 25 μM for 12, 15, or 16; 50 μM for 17). The lowest detection limits of microsomal fatty acid amide hydrolase (FAAH) by substrates were determined by the fact that the signal at 10 min after kinetic measurements are equal to or over three times the noise or basal line at 0 min. Colorimetric substrate (16) assays were performed in clear 96-well microtititer plates using an absorbance wavelength at 382 nm. The fluorescent substrates containing 5-amino-2-methoxypyridine (e.g., 10, 13) were measured at an excitation wavelength (302 nm), emission wavelength (396 nm), and auto cutoff wavelength (325 nm). Similarly, the fluorescent substrates containing 5-amino-2-methoxy-6-methylpyridine (e.g., 11, 14, and 17) were measured at an excitation wavelength (304 nm), emission wavelength (392 nm), and an auto cutoff wavelength of 325 nm. In addition, an excitation wavelength (366 nm), emission wavelength (496 nm), and auto cutoff wavelength (495 nm) were used for the substrates (e.g., 12 and 15) containing 7-amino-4-trifluoromethyl coumarin.
Specific activity determination. The assays for specific activities were performed as described above for the sensitivity assay. The specific activity presented is based on the following: 1) the signal after a 10 min enzymatic reaction was at least 3 fold the baseline signal at 0 min, and 2) the amount of hydrolyzed substrate during a 10 min period was less than 10% of the total amount of the substrate added. To correct for protein-induced fluorescence quenching, a standard curve of 5-amino-2-methoxypyridine (6) or 5-amino-2-methoxy-6-methylpyridine (8) was constructed in the presence of the same protein concentration used for the assay of that enzyme.

Regarding `CCCCCC=CCC=CCC=CCC=CCCCC(=O)Nc1ccc2c(C)cc(=O)oc2c1` [AAMCA, arachidonyl 7-amino-4-methylcoumarin amide], in the series on FAAH [1], the Selectivity ratio amounted to 2.2. Also, in the series with FAAH [2], the Km is 0.48 µM and the Vmax was 0.058 nmol/min/mg.
As to `COc1ccc(N)cn1` [Compound 6, 5-amino-2-methoxypyridine], the “εmax, molar extinction coefficient” value in series [3] was determined as 2340 M⁻¹ cm⁻¹. In addition, in series [4], the “Em, maximal emission wavelength” value was 396 nm and the “Ex, maximal excitation wavelength” value came out at 302 nm. Besides, the “ØF, fluorescence quantum yield” value in series [5] worked out at 0.95. The “relative fluorescent intensity of excitation or emission as function of pH” value in series [6] is “increased with an increase of pH value”.
For the compound `CC(=O)Nc1ccc2c(C(F)(F)F)cc(=O)oc2c1` [Compound 12, N-(4-(trifluoromethyl)-2-oxo-2H-chromen-7-yl) acetamide], the melting point is 109.3 to 111.4 °C. For the same compound, the “Specific activity, Human liver S9” value with amidases, human liver S9 is 0.18 ± 0.02 nmol/min/mg protein. Moreover, the “Specific activity, Human liver microsomes” value in series [7] was determined as 0.66 ± 0.06 nmol/min/mg protein.
For `CCCCCCCC/C=C\CCCCCCCC(N)=O` [Oleamide, oleamide], the Selectivity ratio with FAAH [1] is given as 1.0. Also, in the series on FAAH [2], the Km is 104 µM and the maximal velocity (Vmax) is 5.7 nmol/min/mg.
